pEC50: −log10 of the molar value.
System: T1, LstiPR2/LstiORco
T1 construct: full-length LstiPR2 (ORF 1263 bp, printed 421 aa) co-expressed with LstiORco (cRNA 1:1) in Xenopus laevis oocytes, pT7Ts vector; cloned from male antennae; with Odorant receptor coreceptor
Assay: two-electrode voltage clamp, Xenopus oocytes
Format: cell-based, Loxostege sticticalis
Details: agonist; co-expressed with LstiORco; holding potential -80 mV; Ringer's buffer pH 7.6
Description: two-electrode voltage clamp, Xenopus oocytes on LstiPR2/LstiORco | LstiPR2/LstiORco was sensitive to E11-14:OAc

`CC/C=C/CCCCCCCCCCOC(C)=O` [E11-14:OAc, (E)-11-tetradecenyl acetate] showed a pEC50 of 4.90.

— article PMC10380584, “Functional Characterization of Pheromone Receptors in the Beet Webworm, Loxostege sticticalis (Lepidoptera: Pyralidae)” (Insects, 2023)
